Assay results from US10508120B2, “TYK2 inhibitors and uses thereof” (Nimbus Lakshmi, Inc., priority 2017, dated 2019).

Target: JAK2 kinase domain (JH1) (Homo sapiens (Human), UniProt O60674)
Experiment: JAK2 Radioactive Kinase Assay
Format: biochemical
Settings: 10 μM compound; 10 μM ATP
Procedure: (§1) The Tyk2 and JAK2 radioactive kinase assay measures the percent inhibition at the Tyk2 kinase domain (DH1) and the percent inhibition at the JAK2 kinase domain (JH1). Results of the assay are expressed as percent inhibition at 10 μM.

JAK2 kinase domain (JH1), sequence (O60674 849-1124): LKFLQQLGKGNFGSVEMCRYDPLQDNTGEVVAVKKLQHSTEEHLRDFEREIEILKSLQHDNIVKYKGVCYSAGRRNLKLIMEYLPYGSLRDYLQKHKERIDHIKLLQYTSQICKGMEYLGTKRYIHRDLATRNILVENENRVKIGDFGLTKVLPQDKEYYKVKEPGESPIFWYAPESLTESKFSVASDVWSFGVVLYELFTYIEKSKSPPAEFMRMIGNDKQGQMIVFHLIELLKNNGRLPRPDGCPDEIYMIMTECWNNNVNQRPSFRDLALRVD

Structure (SMILES) | JAK2 JH1% Inhibition @ 10 μM
CNc1cc(Nc2cccn([C@H]3CCCOC3)c2=O)nc2c(C(=O)N[C@@H]3CC[C@H]3OC)cnn12 [I-876] | A (percent inhibition at 10 μM lower than 50)
CNc1cc(Nc2cccn(-c3cccnc3C)c2=O)nc2c(C(=O)N[C@H]3CC[C@@H]3OC)cnn12 [I-924] | A (percent inhibition at 10 μM lower than 50)

Same assay, conditions: 10 μM compound; 10 μM ATP; read-out: JAK2 JH1% Inhibition @ 10 μM

Structure (SMILES) | inhibition at 10 µM
CNc1cc(Nc2cccn(-c3cccnc3C)c2=O)nc2c(C(=O)N[C@H]3CC[C@@H]3OC)cnn12 [I-865] | < 50%
CNc1cc(Nc2cccn([C@@H]3CCCOC3)c2=O)nc2c(C(=O)N[C@H]3CC[C@@H]3OC)cnn12 [I-903, N-((1S,2S)-2-methoxycyclobutyl)-7-(methylamino)-5-((2-oxo-1-((R)-tetrahydro-2H-pyran-3-yl)-1,2-dihydropyridin-3-yl)amino)pyrazolo[1,5-a]pyrimidine-3-carboxamide] | < 50%
CNc1cc(Nc2cccn(-c3cccnc3C)c2=O)nc2c(C(=O)N[C@@H]3CC[C@H]3OC)cnn12 [I-925] | < 50%
CNc1cc(Nc2cccn(-c3cncc(F)c3)c2=O)nc2c(C(=O)N[C@H]3CC[C@@H]3OC)cnn12 [I-1084] | < 50%
CNc1cc(Nc2cccn(-c3cncc(F)c3)c2=O)nc2c(C(=O)N[C@@H]3CC[C@H]3OC)cnn12 [I-1085] | < 50%

Same assay, conditions: compound at 10 μM; ATP 10 μM

Structure (SMILES) | JAK2 JH1% Inhibition @ 10 μM
CNc1cc(-c2cn(C(C)C)c3ncccc23)nc2c(C(=O)N[C@@H]3C[C@H]3O)cnn12 (stereo in doubt) [I-732, N-((1R,2R)-2-hydroxycyclopropyl)-5-(1-isopropyl-1H-pyrrolo[2,3-b]pyridin-3-yl)-7-(methylamino)pyrazolo[1,5-a]pyrimidine-3-carboxamide] | A (percent inhibition at 10 μM lower than 50)
CNc1cc(Nc2cccnc2OC)nc2c(C(=O)N[C@@H]3CCC[C@H]3O)cnn12 [I-448, (R)—N-((1R,2R)-2-hydroxycyclopentyl)-5-((2-methoxypyridin-3-yl)amino)-7-(methylamino)pyrazolo[1,5-a]pyrimidine-3-carboxamide] | A (percent inhibition at 10 μM lower than 50)
CNc1cc(Nc2cccnc2OC2CC2)nc2c(C(=O)N[C@H]3CC[C@H](O)C3)cnn12 [I-489, 5-((2-cyclopropoxypyridin-3-yl)amino)-N-((1S,3S)-3-hydroxycyclopentyl)-7-(methylamino)pyrazolo[1,5-a]pyrimidine-3-carboxamide] | A (percent inhibition at 10 μM lower than 50)
CNc1cc(Nc2cccn(C3CCOCC3)c2=O)nc2c(C(=O)N[C@H]3CC[C@@H]3O)cnn12 [I-596] | A (percent inhibition at 10 μM lower than 50)
CNc1cc(Nc2cccn([C@H]3CC[C@H](OC)CC3)c2=O)nc2c(C(=O)N[C@H]3CC[C@@H]3O)cnn12 [I-636] | A (percent inhibition at 10 μM lower than 50)
CNc1cc(Nc2cccc([C@@H]3CCCCO3)n2)nc2c(C(=O)N[C@@H]3CC[C@@H]3O)cnn12 [I-646] | A (percent inhibition at 10 μM lower than 50)
CNc1cc(Nc2cccc([C@H]3CCCOC3)n2)nc2c(C(=O)N[C@H]3CC[C@@H]3O)cnn12 [I-666] | A (percent inhibition at 10 μM lower than 50)

Target: Tyk2 kinase domain (DH1) (Homo sapiens (Human), UniProt P29597)
Experiment: Tyk2 Radioactive Kinase Assay
Format: biochemical
Settings: compound at 10 μM; ATP 10 μM
Procedure: as §1

Tyk2 kinase domain (DH1), sequence (P29597 897-1176): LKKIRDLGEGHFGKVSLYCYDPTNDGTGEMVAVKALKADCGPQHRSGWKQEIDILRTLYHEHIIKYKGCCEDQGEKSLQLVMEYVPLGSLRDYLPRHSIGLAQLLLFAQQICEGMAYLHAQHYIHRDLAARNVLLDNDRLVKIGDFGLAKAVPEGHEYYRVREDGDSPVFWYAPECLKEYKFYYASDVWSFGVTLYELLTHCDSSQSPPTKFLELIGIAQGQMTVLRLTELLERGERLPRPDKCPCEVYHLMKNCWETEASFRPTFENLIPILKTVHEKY

Structure (SMILES) | Tyk2 JH1% Inhibition @ 10 μM
CNc1cc(-c2cn(C(C)C)c3ncccc23)nc2c(C(=O)N[C@@H]3C[C@H]3O)cnn12 (stereo in doubt) [I-732, N-((1R,2R)-2-hydroxycyclopropyl)-5-(1-isopropyl-1H-pyrrolo[2,3-b]pyridin-3-yl)-7-(methylamino)pyrazolo[1,5-a]pyrimidine-3-carboxamide] | A (percent inhibition at 10 μM lower than 50)
CNc1cc(Nc2cccnc2OC)nc2c(C(=O)N[C@@H]3CCC[C@H]3O)cnn12 [I-448, (R)—N-((1R,2R)-2-hydroxycyclopentyl)-5-((2-methoxypyridin-3-yl)amino)-7-(methylamino)pyrazolo[1,5-a]pyrimidine-3-carboxamide] | A (percent inhibition at 10 μM lower than 50)
CNc1cc(Nc2cccnc2OC2CC2)nc2c(C(=O)N[C@H]3CC[C@H](O)C3)cnn12 [I-489, 5-((2-cyclopropoxypyridin-3-yl)amino)-N-((1S,3S)-3-hydroxycyclopentyl)-7-(methylamino)pyrazolo[1,5-a]pyrimidine-3-carboxamide] | A (percent inhibition at 10 μM lower than 50)
CNc1cc(Nc2cccn(C3CCOCC3)c2=O)nc2c(C(=O)N[C@H]3CC[C@@H]3O)cnn12 [I-596] | A (percent inhibition at 10 μM lower than 50)
CNc1cc(Nc2cccn([C@H]3CC[C@H](OC)CC3)c2=O)nc2c(C(=O)N[C@H]3CC[C@@H]3O)cnn12 [I-636] | A (percent inhibition at 10 μM lower than 50)
CNc1cc(Nc2cccc([C@@H]3CCCCO3)n2)nc2c(C(=O)N[C@@H]3CC[C@@H]3O)cnn12 [I-646] | A (percent inhibition at 10 μM lower than 50)
CNc1cc(Nc2cccc([C@H]3CCCOC3)n2)nc2c(C(=O)N[C@H]3CC[C@@H]3O)cnn12 [I-666] | A (percent inhibition at 10 μM lower than 50)

Target: human TYK2 (JH2domain-pseudokinase) (Homo sapiens (Human), UniProt P29597)
Experiment: TYK2 JH2 Domain Binding Assay (KINOMEscan)
Settings: not given
Method in brief: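 Displacement of a DNA-tagged TYK2 JH2 fusion (human, aa G556–D888, HEK293 extract, <0.1 nM) from ligand-coated beads over 1 h at RT; binding buffer PBS/0.05% Tween 20/10 mM DTT/0.1% BSA.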

human TYK2 (JH2domain-pseudokinase), sequence (P29597 556-888): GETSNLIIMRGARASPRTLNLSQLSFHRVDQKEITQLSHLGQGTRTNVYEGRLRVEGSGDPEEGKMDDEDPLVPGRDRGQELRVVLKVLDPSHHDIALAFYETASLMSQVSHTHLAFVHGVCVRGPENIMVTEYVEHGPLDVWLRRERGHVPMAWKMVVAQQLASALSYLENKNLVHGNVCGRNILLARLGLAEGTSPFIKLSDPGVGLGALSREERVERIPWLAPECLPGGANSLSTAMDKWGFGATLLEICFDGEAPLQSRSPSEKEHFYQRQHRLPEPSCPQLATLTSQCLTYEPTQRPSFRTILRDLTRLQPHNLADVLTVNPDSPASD

Structure (SMILES) | Kd
CNc1cc(Nc2cccn([C@H]3CCCN(CCC#N)C3)c2=O)nc2c(C(=O)NC3CC3)cnn12 [I-1347, (S)-5-((1-(1-(2-cyanoethyl)piperidin-3-yl)-2-oxo-1,2-dihydropyridin-3-yl)amino)-N-cyclopropyl-7-(methylamino)pyrazolo[1,5-a]pyrimidine-3-carboxamide] | 1 to 10 nM
CNc1cc(Nc2cccn(C3CCCCC3)c2=O)nc2c(C(=O)N[C@@H]3COC[C@@H]3O)cnn12 [I-1348] | < 0.2 nM
CNc1cc(Nc2cccn(C3CCCCC3)c2=O)nc2c(C(=O)N[C@H]3COC[C@H]3O)cnn12 [I-1349] | 1 to 10 nM
CNc1cc(Nc2cccn([C@@H]3CC[C@@H]3O)c2=O)nc2c(C(=O)N[C@H]3CC[C@@H]3OC)cnn12 [I-1351] | < 0.2 nM
CNc1cc(-c2cn(C3CC3)c3ncccc23)nc2c(C(=O)N[C@H]3COC[C@H]3O)cnn12 [I-1356] | < 0.2 nM
CNc1cc(Nc2cccn(C3CCOCC3)c2=O)nc2c(C(=O)N[C@@H]3CC[C@H](O)C3)cnn12 [I-1357] | > 10 nM
CNc1cc(Nc2cccn([C@H]3CCC[C@@H](C#N)C3)c2=O)nc2c(C(=O)N[C@@H]3C[C@@H]3F)cnn12 [I-1360] | < 0.2 nM
CNc1cc(Nc2cccn([C@H]3CCC[C@@H](C#N)C3)c2=O)nc2c(C(=O)NC3CC3)cnn12 [I-1361] | 0.2 to 1 nM
CNc1cc(-c2cn([C@H]3CCN(CCF)C3)c3ncccc23)nc2c(C(=O)NC3CC3)cnn12 [I-1363] | 0.2 to 1 nM
CNc1cc(-c2cn([C@@H]3CCN(CCF)C3)c3ncccc23)nc2c(C(=O)NC3CC3)cnn12 [I-1367, (R)—N-cyclopropyl-5-(1-(1-(2-fluoroethyl)pyrrolidin-3-yl)-1H-pyrrolo[2,3-b]pyridin-3-yl)-7-(methylamino)pyrazolo[1,5-a]pyrimidine-3-carboxamide] | < 0.2 nM
CNc1cc(Nc2cccn(-c3cnn(C)c3F)c2=O)nc2c(C(=O)N[C@@H]3CC[C@H]3OC)cnn12 [I-1368] | < 0.2 nM
CNc1cc(Nc2cccn(C(C)C)c2=O)nc2c(C(=O)N[C@@H]3CC[C@]3(C)O)cnn12 [I-1370] | 1 to 10 nM
CNc1cc(Nc2cccn(C(C)C)c2=O)nc2c(C(=O)N[C@H]3CC[C@@]3(C)O)cnn12 [I-1371] | < 0.2 nM
CNc1cc(Nc2cccn([C@H]3CCC[C@H]3O)c2=O)nc2c(C(=O)N[C@@H]3CC[C@H]3OC)cnn12 [I-1372] | 0.2 to 1 nM
CNc1cc(Nc2cccn([C@H]3CCC[C@H](OC)C3)c2=O)nc2c(C(=O)N[C@H]3CC[C@@H]3OC)cnn12 [I-1375] | 1 to 10 nM
CNc1cc(Nc2cccn([C@H]3CCCC[C@H]3OC)c2=O)nc2c(C(=O)N[C@@H]3CC[C@H]3OC)cnn12 [I-1376] | > 10 nM
CNc1cc(Nc2cccn([C@H]3CCN(CCF)C3)c2=O)nc2c(C(=O)N[C@@H]3CC[C@H]3OC)cnn12 [I-1380] | < 0.2 nM
CNc1cc(Nc2cccn([C@@H]3CCCN(CCF)C3)c2=O)nc2c(C(=O)N[C@@H]3CC[C@H]3OC)cnn12 [I-1383] | 1 to 10 nM
CNc1cc(Nc2cccn([C@H]3CC[C@@H]3O)c2=O)nc2c(C(=O)N[C@@H]3CC[C@H]3OC)cnn12 [I-1384] | 0.2 to 1 nM

Structure (SMILES) | Kd
CNc1cc(-c2cn(C(C)C)c3ncc(F)cc23)nc2c(C(=O)N[C@@H]3CC[C@@H]3O)cnn12 [I-1386] | 1 to 10 nM
CNc1cc(Nc2cccn(C3CC(F)(F)C3)c2=O)nc2c(C(=O)N[C@H]3CC[C@@H]3O)cnn12 [I-1390] | 1 to 10 nM
CNc1cc(Nc2cccn(C3CC(F)(F)C3)c2=O)nc2c(C(=O)N[C@@H]3CC[C@@H]3O)cnn12 [I-1391] | < 0.2 nM
CNc1cc(-c2cn(C(C)C)c3ncc(F)cc23)nc2c(C(=O)N[C@@H]3CC[C@H]3OC)cnn12 [I-1392] | 0.2 to 1 nM
CNc1cc(Nc2cccn([C@@H]3CCC[C@@H]3O)c2=O)nc2c(C(=O)N[C@@H]3CC[C@H]3OC)cnn12 [I-1393] | < 0.2 nM
CNc1cc(Nc2cccn([C@@H]3CCC[C@@H]3O)c2=O)nc2c(C(=O)N[C@H]3CC[C@@H]3OC)cnn12 [I-1394] | < 0.2 nM
CNc1cc(Nc2cccn([C@H]3CCC[C@H](O)C3)c2=O)nc2c(C(=O)N[C@H]3CC[C@@H]3OC)cnn12 [I-1396] | 0.2 to 1 nM
CNc1cc(Nc2cccn([C@@H]3C[C@H]3F)c2=O)nc2c(C(=O)NCC(C)(C)CO)cnn12 [I-1399] | 1 to 10 nM
CNc1cc(Nc2cccn([C@@H]3C[C@H]3F)c2=O)nc2c(C(=O)N[C@H]3CC[C@@H]3O)cnn12 [I-1401] | < 0.2 nM
CNc1cc(Nc2cccn([C@@H]3C[C@H]3F)c2=O)nc2c(C(=O)N[C@@H]3CC[C@H]3O)cnn12 [I-1402] | 1 to 10 nM
CNc1cc(Nc2cccn([C@@H]3C[C@H]3F)c2=O)nc2c(C(=O)N[C@@H]3CC[C@@H]3O)cnn12 [I-1403] | 0.2 to 1 nM
CNc1cc(-c2cn(C3CCOCC3)c3ncccc23)nc2c(C(=O)N[C@H]3CC[C@@H]3O)cnn12 [I-1405] | 1 to 10 nM
CNc1cc(Nc2cccn(C(C)C)c2=O)nc2c(C(=O)N[C@H]3COC[C@H]3O)cnn12 [I-1406] | > 10 nM
CNc1cc(Nc2cccn(-c3cccc(F)c3)c2=O)nc2c(C(=O)N[C@H]3COC[C@H]3O)cnn12 [I-1407] | < 0.2 nM
CNc1cc(-c2cn(C3CCOCC3)c3ncccc23)nc2c(C(=O)N[C@H]3COC[C@H]3O)cnn12 [I-1408] | 0.2 to 1 nM
CNc1cc(-c2cn(C(C)C)c3ncccc23)nc2c(C(=O)N[C@H]3CC[C@@]3(C)O)cnn12 [I-1409] | 0.2 to 1 nM
CNc1cc(Nc2cccn([C@H]3CC[C@H]3O)c2=O)nc2c(C(=O)N[C@H]3CC[C@@H]3OC)cnn12 [I-1410] | < 0.2 nM
CNc1cc(Nc2cccn(-c3ccccn3)c2=O)nc2c(C(=O)N[C@H]3C[C@@H]3OC)cnn12 [I-1412] | 0.2 to 1 nM
CNc1cc(Nc2cccn([C@@H]3CCCOC3)c2=O)nc2c(C(=O)N[C@H]3C[C@@H]3OC)cnn12 [I-1414] | > 10 nM
